Test results published in patent US20130005747A1, “METHOD FOR SELECTING A CANCER THERAPY” (Cyclacel Limited, priority 2010, published 2013).

Columns and labels:
Experiment in all cases: Fractional growth, 72 h seliciclib
Format in all cases: cell-based, human
[1] = tested on: 786-O; details: 786-O (Kidney), 15 μM seliciclib
Source text: (§1) A total of 270 human cancer cell lines from diverse cancer histopathologic types were investigated.

[2] = tested on: A2780; details: A2780 (Ovary), 15 μM seliciclib
Source text: as §1

[3] = tested on: BEN; details: BEN (Lung: NSCLC), 15 μM seliciclib
Source text: as §1

[4] = tested on: BFTC-905; details: BFTC-905 (Bladder), 15 μM seliciclib
Source text: as §1

[5] = tested on: BPH-1; details: BPH-1 (Prostate), 15 μM seliciclib
Source text: as §1

[6] = tested on: C32; details: C32 (Skin), 15 μM seliciclib
Source text: as §1

[7] = tested on: COLO 205; details: COLO 205 (Intestine), 15 μM seliciclib
Source text: as §1

[8] = tested on: COLO 320DM; details: COLO 320DM (Intestine), 15 μM seliciclib
Source text: as §1

[9] = tested on: COLO-680N; details: COLO-680N (Esophagus), 15 μM seliciclib
Source text: as §1

[10] = tested on: CaR-1; details: CaR-1 (Intestine), 15 μM seliciclib
Source text: as §1

[11] = tested on: Calu-1; details: Calu-1 (Lung: NSCLC), 15 μM seliciclib
Source text: as §1

[12] = tested on: EN; details: EN (Uterus), 15 μM seliciclib
Source text: as §1

[13] = tested on: H2722; details: H2722 (Lung), 15 μM seliciclib
Source text: as §1

[14] = tested on: HCT-15; details: HCT-15 (Intestine), 15 μM seliciclib
Source text: as §1

[15] = tested on: HGC-27; details: HGC-27 (Stomach), 15 μM seliciclib
Source text: as §1

[16] = tested on: HPAF-II; details: HPAF-II (Pancreas), 15 μM seliciclib
Source text: as §1

[17] = tested on: HSC-4; details: HSC-4 (Head & Neck), 15 μM seliciclib
Source text: as §1

[18] = tested on: KYSE-140; details: KYSE-140 (Esophagus), 15 μM seliciclib
Source text: as §1

[19] = tested on: LNZTA3WT4; details: LNZTA3WT4 (Brain), 15 μM seliciclib
Source text: as §1

[20] = tested on: NCI-H1781; details: NCI-H1781 (Lung: NSCLC), 15 μM seliciclib
Source text: as §1

[21] = tested on: NCI-H520; details: NCI-H520 (Lung: NSCLC), 15 μM seliciclib
Source text: as §1

[22] = tested on: NCI-H647; details: NCI-H647 (Lung: NSCLC), 15 μM seliciclib
Source text: as §1

[23] = tested on: OE21; details: OE21 (Esophagus), 15 μM seliciclib
Source text: as §1

[24] = tested on: PANC-1; details: PANC-1 (Pancreas), 15 μM seliciclib
Source text: as §1

[25] = tested on: PC-14; details: PC-14 (Lung: NSCLC), 15 μM seliciclib
Source text: as §1

[26] = tested on: PCI-38; details: PCI-38 (Head & Neck), 15 μM seliciclib
Source text: as §1

[27] = tested on: PCI-6B; details: PCI-6B (Head & Neck), 15 μM seliciclib
Source text: as §1

[28] = tested on: RPMI 2650; details: RPMI 2650 (Head & Neck), 15 μM seliciclib
Source text: as §1

[29] = tested on: RT-112; details: RT-112 (Bladder), 15 μM seliciclib
Source text: as §1

[30] = tested on: SBC-5; details: SBC-5 (Lung), 15 μM seliciclib
Source text: as §1

[31] = tested on: SHP-77; details: SHP-77 (Lung), 15 μM seliciclib
Source text: as §1

[32] = tested on: SK-N-AS; details: SK-N-AS (Brain), 15 μM seliciclib
Source text: as §1

[33] = tested on: SW 1116; details: SW 1116 (Intestine), 15 μM seliciclib
Source text: as §1

[34] = tested on: SW620; details: SW620 (Intestine), 15 μM seliciclib
Source text: as §1

[35] = tested on: T98G; details: T98G (Brain), 15 μM seliciclib
Source text: as §1

[36] = tested on: WM-115; details: WM-115 (Skin), 15 μM seliciclib
Source text: as §1

[37] = tested on: YAPC; details: YAPC (Pancreas), 15 μM seliciclib
Source text: as §1

CC[C@H](CO)Nc1nc(NCc2ccccc2)c2ncn(C(C)C)c2n1 [seliciclib, roscovitine]
Fractional Growth [1]: 0.3998
Fractional Growth [2]: 0.4827
Fractional Growth [3]: 0.4149
Fractional Growth [4]: 0.4198
Fractional Growth [5]: 0.6039
Fractional Growth [6]: 0.5391
Fractional Growth [7]: 0.4437
Fractional Growth [8]: 0.3188
Fractional Growth [9]: 0.6838
Fractional Growth [10]: 0.5795
Fractional Growth [11]: 0.6124
Fractional Growth [12]: 0.1503
Fractional Growth [13]: 0.8974
Fractional Growth [14]: 0.5363
Fractional Growth [15]: 0.2806
Fractional Growth [16]: 0.4628
Fractional Growth [17]: 0.3894
Fractional Growth [18]: 0.6278
Fractional Growth [19]: 0.6936
Fractional Growth [20]: 0.6273
Fractional Growth [21]: 0.6863
Fractional Growth [22]: 0.4521
Fractional Growth [23]: 0.4083
Fractional Growth [24]: 0.5761
Fractional Growth [25]: 0.5776
Fractional Growth [26]: 0.3656
Fractional Growth [27]: 0.5328
Fractional Growth [28]: 0.1937
Fractional Growth [29]: 0.243
Fractional Growth [30]: 0.7399
Fractional Growth [31]: 0.617
Fractional Growth [32]: 0.7261
Fractional Growth [33]: 0.7592
Fractional Growth [34]: 0.7486
Fractional Growth [35]: 0.4404
Fractional Growth [36]: 0.5068
Fractional Growth [37]: 0.588
